# Measurements as given in US11072584B2, “Carbon monoxide releasing norbornenone compounds” (OTAGO INNOVATION LIMITED, priority 2015, dated 2021).
# Test system: cardiac tissue
# Test: static storage of cardiac tissue sections, TTC tissue viability stain
# Parameters: species or system Sprague Dawley (SD) rats
# Settings: 3 μM in DMEM; 24 and 48 hours cool static storage
# Method: The following protocol was used to assess the ex vivo protective effects of the oCOm compounds in solid, non-perfused biological tissues. Male Sprague Dawley (SD) rats (280-310 g) were decapitated and the hearts rapidly excised. Hearts were cut into 1 mm thick sections and placed in 3 ml of DMEM in sterile 24 well tissue culture plates. Two tissues sections from each heart were immediately stained without storing, with 1% 2,3,5-Triphenyltetrazolium chloride (TTC) in glucose supplemented DMEM for 15 minutes at 37° C. with continuous shaking. Theses tissues represent the baseline tissue viability prior to storage. This staining technique requires active dehydrogenase enzymes to be present in order to convert TCC to a brick red formazan pigment. […] Tissues were then stained with TTC and fixed as above. One control tissue section was left unstained for comparison. All samples were sectioned transversely, photographed and staining intensity assessed qualitatively.
structure (smiles),measurement,value
"CC12C(=O)C(C)(C(c3ccccc3)=C1c1ccccc1)C1C(=O)N(CCN)C(=O)C12.O=C(O)C(F)(F)F (stereo not shown) [DB-21, 2-(4,7-Dimethyl-1,3,8-trioxo-5,6-diphenyl-3a,4,7,7a-tetrahydro-1H-4,7-methanoisoindol-2(2H)-yl)ethanaminium 2,2,2-trifluoroacetate]",tissue viability by TTC (formazan) staining (in words),little staining was visible
